Experimental data: ChEMBL document CHEMBL1201862, “PubChem BioAssay data set” (2004)
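48-hour exposure; five concentrations; linearly interpolated endpoints. GI50: concentration for 50% inhibition of growth.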 Activity calls are given as the source filed them. Rule as the data show it: active = GI50 up to about 1.1 µM and inactive = higher.

Key:
Test in all cases: growth of human tumour cells (NCI), 48 h
NCI/ADR-RES = system: NCI/ADR-RES
MDA-MB-231 = system: MDA-MB-231
EKVX = system: EKVX
UO-31 = system: UO-31
COLO 205 = system: COLO 205
RXF 393 = system: RXF 393
Malme-3M = system: Malme-3M
OVCAR-3 = system: OVCAR-3
NCI-H522 = system: NCI-H522
DU-145 = system: DU-145
MCF7 = system: MCF7
T47D = system: T47D
UACC-257 = system: UACC-257
MDA-MB-435 = system: MDA-MB-435
NCI-H460 = system: NCI-H460
NCI-H226 = system: NCI-H226

Measured: GI50

CN(CCNC(=O)c1nn(-c2ccc(Cl)cc2Cl)c2c1Cc1ccccc1-2)CCNC(=O)c1nn(-c2ccc(Cl)cc2Cl)c2c1Cc1ccccc1-2
inactive: NCI/ADR-RES 3.39 µM | MDA-MB-231 2.66 µM | EKVX 20 µM | UO-31 2.94 µM | COLO 205 1.81 µM | RXF 393 2.25 µM | Malme-3M 1.42 µM | OVCAR-3 3.55 µM | NCI-H522 1.58 µM | DU-145 4.69 µM | MCF7 2.56 µM | T47D 3.77 µM | UACC-257 2.12 µM | MDA-MB-435 1.51 µM | NCI-H460 1.75 µM

c1ccc2c3c(ccc2c1)CSCc1ccc2ccccc2c1-3
inactive: NCI/ADR-RES > 100 µM | MDA-MB-231 > 100 µM | EKVX > 100 µM | UO-31 > 100 µM | COLO 205 > 100 µM | RXF 393 > 100 µM | Malme-3M > 100 µM | OVCAR-3 > 100 µM | NCI-H522 > 100 µM | DU-145 > 100 µM | MCF7 > 100 µM | T47D > 100 µM | UACC-257 43.5 µM | MDA-MB-435 > 100 µM

CC1=Nc2nc3ccccc3n2C(C)(C)C1
inactive: NCI/ADR-RES > 100 µM | MDA-MB-231 > 100 µM | EKVX > 100 µM | UO-31 > 100 µM | COLO 205 > 100 µM | RXF 393 > 100 µM | NCI-H226 > 100 µM | Malme-3M 4.54 µM | OVCAR-3 > 100 µM | NCI-H522 > 100 µM | MCF7 > 100 µM | T47D > 100 µM | UACC-257 > 100 µM | MDA-MB-435 > 100 µM | NCI-H460 > 100 µM

CC(C)(C)C1=CC(C)(n2[nH]c(=O)n(-c3ccccc3)c2=O)C=C(C(C)(C)C)C1=O
inactive: NCI/ADR-RES > 100 µM | MDA-MB-231 > 100 µM | UO-31 44.9 µM | COLO 205 > 100 µM | NCI-H226 > 100 µM | Malme-3M > 100 µM | NCI-H522 > 100 µM | DU-145 > 100 µM | MCF7 > 100 µM | T47D 59.6 µM | UACC-257 > 100 µM | MDA-MB-435 > 100 µM | NCI-H460 > 100 µM

CCOC(=O)c1ncn(CCc2ccc(Cl)cc2)c1C
inactive: NCI/ADR-RES 70.8 µM | MDA-MB-231 > 100 µM | EKVX > 100 µM | UO-31 34.5 µM | COLO 205 > 100 µM | RXF 393 > 100 µM | NCI-H226 > 100 µM | Malme-3M > 100 µM | OVCAR-3 > 100 µM | NCI-H522 34.4 µM | DU-145 > 100 µM | MCF7 > 100 µM | UACC-257 > 100 µM | MDA-MB-435 > 100 µM | NCI-H460 > 100 µM

COc1cc(Nc2cnc3cc(F)c(F)cc3n2)cc(OC)c1
inactive: NCI/ADR-RES 90.4 µM | EKVX > 100 µM | UO-31 > 100 µM | COLO 205 > 100 µM | RXF 393 12.2 µM | NCI-H226 > 100 µM | Malme-3M > 100 µM | OVCAR-3 > 100 µM | NCI-H522 11.4 µM | DU-145 > 100 µM | MCF7 > 100 µM | T47D > 100 µM | UACC-257 > 100 µM | MDA-MB-435 > 100 µM | NCI-H460 > 100 µM

NC(=O)c1cc(-c2ccc(-n3ccnc3)cc2)nnc1O
inactive: EKVX > 100 µM | UO-31 > 100 µM | COLO 205 > 100 µM | RXF 393 > 100 µM | Malme-3M > 100 µM | NCI-H522 > 100 µM | DU-145 > 100 µM | MCF7 67.6 µM | UACC-257 > 100 µM | MDA-MB-435 > 100 µM | NCI-H460 > 100 µM

CCCC1=NC(C(F)(F)F)(C(F)(F)F)N=C(N2CCOCC2)O1
inactive: NCI/ADR-RES > 100 µM | MDA-MB-231 > 100 µM | EKVX > 100 µM | UO-31 > 100 µM | COLO 205 > 100 µM | RXF 393 > 100 µM | NCI-H226 > 100 µM | Malme-3M > 100 µM | OVCAR-3 > 100 µM | DU-145 > 100 µM | MCF7 > 100 µM | T47D > 100 µM | UACC-257 > 100 µM | MDA-MB-435 > 100 µM

O=C1C2=Cc3ccccc3OC2(O)Oc2ccccc21 (stereo not drawn)
inactive: NCI/ADR-RES > 100 µM | MDA-MB-231 > 100 µM | EKVX > 100 µM | COLO 205 > 100 µM | RXF 393 > 100 µM | NCI-H226 > 100 µM | Malme-3M > 100 µM | OVCAR-3 91.2 µM | DU-145 > 100 µM | MCF7 > 100 µM | T47D > 100 µM | UACC-257 > 100 µM | MDA-MB-435 > 100 µM

O=C1C(=CNc2ccc([N+](=O)[O-])cc2)C(=O)N(c2ccccc2)C(=O)N1c1ccccc1
inactive: NCI/ADR-RES > 100 µM | MDA-MB-231 > 100 µM | EKVX > 100 µM | UO-31 > 100 µM | COLO 205 > 100 µM | RXF 393 > 100 µM | NCI-H226 > 100 µM | Malme-3M > 100 µM | OVCAR-3 56.6 µM | NCI-H522 > 100 µM | MCF7 > 100 µM | T47D 70.1 µM | UACC-257 > 100 µM | MDA-MB-435 > 100 µM | NCI-H460 > 100 µM

CN(C(=O)c1ccccc1)C1CCCC(=O)CC1 (stereo not drawn)
inactive: MDA-MB-231 > 100 µM | EKVX > 100 µM | UO-31 > 100 µM | COLO 205 > 100 µM | RXF 393 > 100 µM | NCI-H226 > 100 µM | Malme-3M > 100 µM | OVCAR-3 > 100 µM | NCI-H522 > 100 µM | DU-145 > 100 µM | MCF7 > 100 µM | T47D > 100 µM | UACC-257 > 100 µM | MDA-MB-435 > 100 µM | NCI-H460 > 100 µM

C=C(CN(C)C)C1(c2ccccc2)CC2(CCCC2)C(=O)O1 (stereo not drawn)
inactive: MDA-MB-231 64.4 µM | EKVX > 100 µM | UO-31 23.9 µM | COLO 205 28.2 µM | RXF 393 > 100 µM | NCI-H226 > 100 µM | Malme-3M 14.7 µM | OVCAR-3 38.7 µM | NCI-H522 20.9 µM | DU-145 > 100 µM | MCF7 74.1 µM | T47D > 100 µM | UACC-257 49.2 µM | MDA-MB-435 56.4 µM | NCI-H460 > 100 µM

COc1cc(COC(=O)NC(Cc2cccs2)C(=O)O)c([N+](=O)[O-])cc1OC (stereo not drawn)
inactive: NCI/ADR-RES > 100 µM | EKVX > 100 µM | UO-31 > 100 µM | COLO 205 > 100 µM | RXF 393 > 100 µM | NCI-H226 > 100 µM | Malme-3M > 100 µM | OVCAR-3 > 100 µM | DU-145 > 100 µM | MCF7 > 100 µM | T47D > 100 µM | UACC-257 > 100 µM | MDA-MB-435 > 100 µM | NCI-H460 > 100 µM

CCC(C)C(NC(=O)C(CCCCN)NC(=O)C(NC(=O)C(CCC(N)=O)NC(=O)C(CCCNC(=N)N)NC(C)=O)C(C)CC)C(=O)NC(Cc1c[nH]c2ccccc12)C(=O)NC(Cc1ccccc1)C(=O)NC(CCC(N)=O)C(=O)NC(CC(N)=O)C(=O)NC(CCCNC(=N)N)C(=O)NC(CCCNC(=N)N)C(=O)NC(CCSC)C(=O)NC(CCCCN)C(=O)NC(Cc1c[nH]c2ccccc12)C(=O)NC(CCCCN)C(=O)NC(CCCCN)C(N)=O (stereo not drawn)
inactive: NCI/ADR-RES > 50 µM | MDA-MB-231 14.3 µM | EKVX > 50 µM | COLO 205 38.3 µM | RXF 393 > 50 µM | Malme-3M 34.1 µM | OVCAR-3 31.1 µM | NCI-H522 > 50 µM | DU-145 > 50 µM | MCF7 29.8 µM | T47D 16.3 µM | UACC-257 46.5 µM | MDA-MB-435 17.5 µM | NCI-H460 15.5 µM

CC(=O)OC1CC2c3cccc4c3C(CC2N(C)C1=O)CN4C(=O)c1ccccc1 (stereo not drawn)
inactive: NCI/ADR-RES 20.6 µM | MDA-MB-231 12.6 µM | EKVX 22.1 µM | UO-31 16 µM | COLO 205 23.3 µM | NCI-H226 20.7 µM | OVCAR-3 13.8 µM | NCI-H522 4.24 µM | DU-145 16.6 µM | MCF7 23.1 µM | T47D 18.1 µM | UACC-257 20.5 µM | MDA-MB-435 18.4 µM

CCOP(=O)(OCC)C1C(CO)OC(n2ccc(=O)[nH]c2=O)C1O (stereo not drawn)
inactive: MDA-MB-231 > 100 µM | EKVX > 100 µM | UO-31 > 100 µM | RXF 393 > 100 µM | NCI-H226 > 100 µM | Malme-3M > 100 µM | OVCAR-3 > 100 µM | NCI-H522 > 100 µM | T47D > 100 µM | UACC-257 > 100 µM | NCI-H460 > 100 µM

Cc1c(S(=O)(=O)N/C(N)=N/c2ccc(Cl)cc2)sc2ccc(Cl)cc12
inactive: NCI/ADR-RES 19.5 µM | MDA-MB-231 16 µM | EKVX 15.9 µM | UO-31 15.3 µM | COLO 205 17.2 µM | RXF 393 48.6 µM | NCI-H226 20.4 µM | Malme-3M 17.1 µM | OVCAR-3 18.2 µM | NCI-H522 14 µM | DU-145 18.5 µM | MCF7 17.8 µM | T47D 29.7 µM | UACC-257 18.1 µM | NCI-H460 16.9 µM

COc1ccc(OCc2ccc3nc(-c4ccccc4)c(Cl)nc3c2)cc1
inactive: NCI/ADR-RES 40.3 µM | MDA-MB-231 11.7 µM | EKVX 50.5 µM | UO-31 62.8 µM | COLO 205 16.6 µM | Malme-3M 12.9 µM | OVCAR-3 84.3 µM | NCI-H522 10.7 µM | DU-145 > 100 µM | MCF7 37.6 µM | T47D 45 µM | UACC-257 > 100 µM | MDA-MB-435 50.6 µM | NCI-H460 16.7 µM

CCCCCCC1CC(=O)C1(Cl)Cl (stereo not drawn)
inactive: NCI/ADR-RES 32.2 µM | MDA-MB-231 30.7 µM | EKVX 59.2 µM | UO-31 19.4 µM | NCI-H226 43.9 µM | Malme-3M 16.1 µM | NCI-H522 17.3 µM | DU-145 26.9 µM | MCF7 26.4 µM | T47D 27.5 µM | UACC-257 18.7 µM | NCI-H460 > 10 µM
